{"source": "patent US9707305B2", "about": "“Formulas for diagnosing and treating hormone-dependent cancers and cancers of the organs responsible for steroid hormone synthesis” (Commissariat à l'énergie atomique et aux énergies …, priority 2011, dated 2017)", "test": "Biodistribution of the nano-emulsion of Example 1.1 (radioactivity and fluorescence per organ)", "assay_type": "in vivo", "method": "In the following examples, the radioactivity was counted with the TRiCarb Counter (Ref: Packard, Liquid Scintillation Analyzers; Models 2200CA).\nFluobeam 700 (Fluoptics) is the apparatus with which the whole of the organs from the biodistribution were analyzed in fluorescence as well as the one with which the biodistribution kinetics of the nano-emulsions were established in vivo. This imaging system allows viewing of the fluorescence in spectral bands from 700 to 850 nm for a 650 nm excitation. The apparatus consists of an electric case containing the laser of class 3B, its power supply and an optical head containing the CCD camera.\nThe nano-emulsions of Example 1 were injected into FVB female and male mice. As a comparison, a mixture of three tracers ([3H]CHE, [14C]CO and DiD) (not formulated as a nano-emulsion) was injected in order to observe the distribution of the tracers in the absence of droplets being used as a distribution carrier.\nTables 6 to 14 provide the biodistribution results of each tracer ([3H]CHE, [14C]CO and DiD) expressed as a percentage of the dose injected per gram of tissue (or [3H]CHE and [14C]CO) or as fluorescence intensity (for DiD) depending on the organ of the mouse, 15 minutes (Table 6), 2 hours (Table 7), 4 hours (Table 8), 6 hours (Table 9), 16 hours (Table 10), 24 hours (Table 11), 72 hours (Table 12), 120 hours (Table 13) and 168 hours (Table 14), after injection into an FVB female mouse of the nano-emulsion of Example 1.1. (nano-emulsion according to the invention comprising the three tracers ([3H]CHE, [14C]CO and DiD).", "key": {"[1]": {"details": "2 h after injection of nano-emulsion of Example 1.1, FVB female mouse"}, "[2]": {"details": "4 h after injection of nano-emulsion of Example 1.1, FVB female mouse"}, "[3]": {"details": "16 h (Table 9 head) after injection of nano-emulsion of Example 1.1, FVB female mouse"}, "[4]": {"details": "24 h (Table 10 head) after injection of nano-emulsion of Example 1.1, FVB female mouse"}, "[5]": {"details": "48 h (Table 11 head) after injection of nano-emulsion of Example 1.1, FVB female mouse"}, "[6]": {"details": "72 h after injection of nano-emulsion of Example 1.1, FVB female mouse"}, "[7]": {"details": "120 h after injection of nano-emulsion of Example 1.1, FVB female mouse"}}}
{"molecule": "CCCCCCCC/C=C\\CCCCCCC[14C](=O)O[C@H]1CC[C@@]2(C)C(=CC[C@H]3[C@@H]4CC[C@H]([C@H](C)CCCC(C)C)[C@@]4(C)CC[C@@H]32)C1", "note": "[[14C]CO, cholesteryl oleate]", "values": [{"measurement": "biodistribution, Lung (MEAN)", "setting": "[1]", "result": "4.42 % of injected dose per gram of"}, {"measurement": "biodistribution, Muscle (MEAN)", "setting": "[1]", "result": "0.48 % of injected dose per gram of"}, {"measurement": "biodistribution, Ovary (MEAN)", "setting": "[1]", "result": "22.72 % of injected dose per gram of"}, {"measurement": "biodistribution, Pancreas (MEAN)", "setting": "[1]", "result": "1.68 % of injected dose per gram of"}, {"measurement": "biodistribution, Salivary glands (MEAN)", "setting": "[1]", "result": "1.74 % of injected dose per gram of"}, {"measurement": "biodistribution, Spleen (MEAN)", "setting": "[1]", "result": "2.87 % of injected dose per gram of"}, {"measurement": "biodistribution, Uterus (MEAN)", "setting": "[1]", "result": "2.21 % of injected dose per gram of"}, {"measurement": "biodistribution, Adrenal glands (MEAN)", "setting": "[2]", "result": "21.37 % of injected dose per gram of"}, {"measurement": "biodistribution, Brain (MEAN)", "setting": "[2]", "result": "0.23 % of injected dose per gram of"}, {"measurement": "biodistribution, Fat (MEAN)", "setting": "[2]", "result": "1.46 % of injected dose per gram of"}, {"measurement": "biodistribution, Heart (MEAN)", "setting": "[2]", "result": "3.75 % of injected dose per gram of"}, {"measurement": "biodistribution, Intestine (MEAN)", "setting": "[2]", "result": "1.80 % of injected dose per gram of"}, {"measurement": "biodistribution, Kidney (MEAN)", "setting": "[2]", "result": "2.27 % of injected dose per gram of"}, {"measurement": "biodistribution, Liver (MEAN)", "setting": "[2]", "result": "13.69 % of injected dose per gram of"}, {"measurement": "biodistribution, Lungs (MEAN)", "setting": "[2]", "result": "3.09 % of injected dose per gram of"}, {"measurement": "biodistribution, Muscle (MEAN)", "setting": "[2]", "result": "0.38 % of injected dose per gram of"}, {"measurement": "biodistribution, Ovary (MEAN)", "setting": "[2]", "result": "25.14 % of injected dose per gram of"}, {"measurement": "biodistribution, Pancreas (MEAN)", "setting": "[2]", "result": "1.17 % of injected dose per gram of"}, {"measurement": "biodistribution, Salivary glands (MEAN)", "setting": "[2]", "result": "1.47 % of injected dose per gram of"}, {"measurement": "biodistribution, Spleen (MEAN)", "setting": "[2]", "result": "1.97 % of injected dose per gram of"}, {"measurement": "biodistribution, Uterus (MEAN)", "setting": "[2]", "result": "1.39 % of injected dose per gram of"}, {"measurement": "biodistribution, Adrenal glands (MEAN)", "setting": "[3]", "result": "30.64 % of injected dose per gram of"}, {"measurement": "biodistribution, Brain (MEAN)", "setting": "[3]", "result": "0.13 % of injected dose per gram of"}, {"measurement": "biodistribution, Fat (MEAN)", "setting": "[3]", "result": "8.06 % of injected dose per gram of"}, {"measurement": "biodistribution, Heart (MEAN)", "setting": "[3]", "result": "2.00 % of injected dose per gram of"}, {"measurement": "biodistribution, Intestine (MEAN)", "setting": "[3]", "result": "2.53 % of injected dose per gram of"}, {"measurement": "biodistribution, Kidney (MEAN)", "setting": "[3]", "result": "1.75 % of injected dose per gram of"}, {"measurement": "biodistribution, Liver (MEAN)", "setting": "[3]", "result": "8.68 % of injected dose per gram of"}, {"measurement": "biodistribution, Lungs (MEAN)", "setting": "[3]", "result": "2.80 % of injected dose per gram of"}, {"measurement": "biodistribution, Muscle (MEAN)", "setting": "[3]", "result": "1.59 % of injected dose per gram of"}, {"measurement": "biodistribution, Ovary (MEAN)", "setting": "[3]", "result": "21.45 % of injected dose per gram of"}, {"measurement": "biodistribution, Pancreas (MEAN)", "setting": "[3]", "result": "1.19 % of injected dose per gram of"}, {"measurement": "biodistribution, Salivary glands (MEAN)", "setting": "[3]", "result": "2.02 % of injected dose per gram of"}, {"measurement": "biodistribution, Spleen (MEAN)", "setting": "[3]", "result": "1.89 % of injected dose per gram of"}, {"measurement": "biodistribution, Uterus (MEAN)", "setting": "[3]", "result": "2.76 % of injected dose per gram of"}, {"measurement": "biodistribution, Adrenal glands (MEAN)", "setting": "[4]", "result": "13.05 % of injected dose per gram of"}, {"measurement": "biodistribution, Brain (MEAN)", "setting": "[4]", "result": "0.11 % of injected dose per gram of"}, {"measurement": "biodistribution, Fat (MEAN)", "setting": "[4]", "result": "2.28 % of injected dose per gram of"}, {"measurement": "biodistribution, Heart (MEAN)", "setting": "[4]", "result": "1.31 % of injected dose per gram of"}, {"measurement": "biodistribution, Intestine (MEAN)", "setting": "[4]", "result": "1.22 % of injected dose per gram of"}, {"measurement": "biodistribution, Kidney (MEAN)", "setting": "[4]", "result": "1.03 % of injected dose per gram of"}, {"measurement": "biodistribution, Liver (MEAN)", "setting": "[4]", "result": "5.39 % of injected dose per gram of"}, {"measurement": "biodistribution, Lung (MEAN)", "setting": "[4]", "result": "1.30 % of injected dose per gram of"}, {"measurement": "biodistribution, Muscle (MEAN)", "setting": "[4]", "result": "1.01 % of injected dose per gram of"}, {"measurement": "biodistribution, Ovary (MEAN)", "setting": "[4]", "result": "9.58 % of injected dose per gram of"}, {"measurement": "biodistribution, Pancreas (MEAN)", "setting": "[4]", "result": "0.67 % of injected dose per gram of"}, {"measurement": "biodistribution, Salivary glands (MEAN)", "setting": "[4]", "result": "1.76 % of injected dose per gram of"}, {"measurement": "biodistribution, Spleen (MEAN)", "setting": "[4]", "result": "1.10 % of injected dose per gram of"}, {"measurement": "biodistribution, Uterus (MEAN)", "setting": "[4]", "result": "0.96 % of injected dose per gram of"}, {"measurement": "biodistribution, Adrenal glands (MEAN)", "setting": "[5]", "result": "10.83 % of injected dose per gram of"}, {"measurement": "biodistribution, Brain (MEAN)", "setting": "[5]", "result": "0.11 % of injected dose per gram of"}, {"measurement": "biodistribution, Fat (MEAN)", "setting": "[5]", "result": "3.46 % of injected dose per gram of"}, {"measurement": "biodistribution, Heart (MEAN)", "setting": "[5]", "result": "0.87 % of injected dose per gram of"}, {"measurement": "biodistribution, Intestine (MEAN)", "setting": "[5]", "result": "1.01 % of injected dose per gram of"}, {"measurement": "biodistribution, Kidney (MEAN)", "setting": "[5]", "result": "0.77 % of injected dose per gram of"}, {"measurement": "biodistribution, Liver (MEAN)", "setting": "[5]", "result": "1.53 % of injected dose per gram of"}, {"measurement": "biodistribution, Lungs (MEAN)", "setting": "[5]", "result": "1.28 % of injected dose per gram of"}, {"measurement": "biodistribution, Muscle (MEAN)", "setting": "[5]", "result": "0.34 % of injected dose per gram of"}, {"measurement": "biodistribution, Ovary (MEAN)", "setting": "[5]", "result": "6.46 % of injected dose per gram of"}, {"measurement": "biodistribution, Pancreas (MEAN)", "setting": "[5]", "result": "0.70 % of injected dose per gram of"}, {"measurement": "biodistribution, Salivary glands (MEAN)", "setting": "[5]", "result": "1.20 % of injected dose per gram of"}, {"measurement": "biodistribution, Spleen (MEAN)", "setting": "[5]", "result": "1.03 % of injected dose per gram of"}, {"measurement": "biodistribution, Uterus (MEAN)", "setting": "[5]", "result": "1.24 % of injected dose per gram of"}, {"measurement": "biodistribution, Adrenal glands (MEAN)", "setting": "[6]", "result": "9.36 % of injected dose per gram of"}, {"measurement": "biodistribution, Brain (MEAN)", "setting": "[6]", "result": "0.10 % of injected dose per gram of"}, {"measurement": "biodistribution, Fat (MEAN)", "setting": "[6]", "result": "5.01 % of injected dose per gram of"}, {"measurement": "biodistribution, Heart (MEAN)", "setting": "[6]", "result": "0.64 % of injected dose per gram of"}, {"measurement": "biodistribution, Intestine (MEAN)", "setting": "[6]", "result": "0.62 % of injected dose per gram of"}, {"measurement": "biodistribution, Kidney (MEAN)", "setting": "[6]", "result": "0.66 % of injected dose per gram of"}, {"measurement": "biodistribution, Liver (MEAN)", "setting": "[6]", "result": "0.75 % of injected dose per gram of"}, {"measurement": "biodistribution, Lungs (MEAN)", "setting": "[6]", "result": "0.88 % of injected dose per gram of"}, {"measurement": "biodistribution, Muscle (MEAN)", "setting": "[6]", "result": "0.28 % of injected dose per gram of"}, {"measurement": "biodistribution, Ovary (MEAN)", "setting": "[6]", "result": "3.04 % of injected dose per gram of"}, {"measurement": "biodistribution, Pancreas (MEAN)", "setting": "[6]", "result": "0.50 % of injected dose per gram of"}, {"measurement": "biodistribution, Salivary glands (MEAN)", "setting": "[6]", "result": "1.16 % of injected dose per gram of"}, {"measurement": "biodistribution, Spleen (MEAN)", "setting": "[6]", "result": "0.75 % of injected dose per gram of"}, {"measurement": "biodistribution, Uterus (MEAN)", "setting": "[6]", "result": "1.00 % of injected dose per gram of"}, {"measurement": "biodistribution, Fat (MEAN)", "setting": "[7]", "result": "2.42 % of injected dose per gram of"}, {"measurement": "biodistribution, Kidney (MEAN)", "setting": "[7]", "result": "0.40 % of injected dose per gram of"}]}
